Experimental data as given in patent US20050182002A1, “Agents which interact with a serotonin transporter for the treatment of cancer” (priority 2002, published 2005).
Where two headings read alike, the source gives them in different places.

Tests used:
[1] = system: actively cycling tonsilar B cells; assay: DNA synthesis in actively cycling tonsilar B cells; assay type: cell-based; conditions: overnight fluoxetine up to 20 μM after 2 days stimulation with SAC (± CD40L) or PMA (± ionomycin)
[2] = system: L3055 cells; assay: Cell cycle analysis (propidium iodide, flow cytometry); assay type: cell-based; conditions: 24 hr; each at its maximal concentration (5-HT 150 μM, fluoxetine 10 μM, anti-μ chain antibody 10 μg/ml)
Protocol: Cells cultured under conditions indicated below were harvested into 100 μl of 1×PBS followed by 400 μl cell cycle buffer containing Triton X-100 and propidium iodide and left to incubate at 4° C. for 1 hr to allow staining of DNA. The degree of fluorescence emitted by bound PI is directly proportional to the amount of DNA in each cell and was measured by flow cytometry as previously described (MacDonald I, et al. Blood (1996); 87:1147-1154). Results are expressed as percentage of viable cells residing in each phase of the cycle.

[3] = system: L3055 BL cells; assay: TUNEL DNA strand breaks, FACS; assay type: cell-based; conditions: fluoxetine 20 μM, 17 h, 10^6/ml; Means ± SE of 3; control 17.8 ± 3.7
From the text: Neither BL cells nor their normal germinal centre B cell equivalents tended to produce the extensive “DNA ladders” that can be seen as a result of DNA fragmentation when other cells (e.g. thymocytes) undergo apoptosis.

[4] = system: L3055 cells; assay: Caspase activity (FAM-VAD-FMK, FACS); assay type: cell-based; conditions: single dose for 24 hours; fluoxetine 10 μM, paroxetine 10 μM, citalopram 100 μM
Protocol: Caspase activity was detected using the CaspaTag Caspase Activity Kit (Intergen, Oxford, UK). Cells cultured under the conditions indicated below were harvested into 300 μl of culture medium at a cell density of 10^6cells/ml, followed by the addition of […] of a 30×working solution of FAM-VAD-FMK (a carboxy fluorescent tagged caspase inhibitor) (Intergen Co., USA). Cells were then incubated for 1 hr at 37° C. under 5% CO2 while protecting the tubes from light. At the end of the incubation, they were washed twice in 2 ml of 1×washing buffer, followed by addition of 2 μl of PI to distinguish dead cells from live cells, then analysed on an EPICS XL-MCL flow cytometer or by confocal microscopy. For the latter, treated cells were harvested into 300 μl of culture medium containing 10 μl of FAM-VAD-FMK before incubating for 1 hr under the conditions described above. Next, 1.5 μl of Hoechst 33342 stain was added for 5 min, and cells were washed twice in 2 ml of 1×washing buffer following the addition of 1 μl of PI.

[5] = system: biopsylike BL cells; assay: Real-time RT-PCR gene expression; assay type: cell-based; conditions: data not shown
From the text: BL is characterised by translocations of one c-myc allele to one of the immunoglobulin loci and the extraordinarily high growth rate that characterises these tumours reflects the pro-proliferative actions of the translocated gene. Despite its hallmark translocation to immunoglobulin loci, the BL-associated constitutive expression of c-myc remains dependent on the binding of the recognised c-myc transcription factor Nm23-H2 to a PuF site within the regulatory sequence of the translocated gene.

[6] = system: L3055 BL cells; assay: DNA synthesis by [3H]-thymidine incorporation in L3055 cells; assay type: cell-based
Protocol: DNA synthesis was determined by measuring ^3H-thymidine ([^3H]Tdr; Amersham, UK) incorporation into cellular DNA. Cells were cultured in 200 μL of supplemented medium at densities and for times indicated below in flat-bottomed, 96-well tissue culture plates (Becton Dickinson, Oxford, U K) then pulsed for the final 4 h with 50 μl of 10 μCi/ml [^3H]Tdr before harvesting on a Skatron cell harvester (Helis Bio Ltd, Newmarket, UK).

[7] = system: L3055 cells; assay: Syto 16 / propidium iodide staining (viable, apoptotic, necrotic); assay type: cell-based
Protocol: Changes in the viability of cells cultured under conditions indicated below were quantified by assessment of forward and 90° (side) light scatter of cells as previously described (Dive C, et al. Biochimica Biophysica Acta (1992); 1133:275-285) using an EPICS XL-MCL flow cytometer (Beckman Coulter, Miami, Fla., USA). Prior to analysis, cells were harvested into polythene FACS tubes, and fixed at 4° C. in 400 μl of FACS buffer [PBS with 5% NGS and 2% Formaldehyde] (BDH/MERCK). Cells were gated in two populations (viable and dead) according to their forward and side light scatter. Viability was expressed as a percentage of the total number of cells residing in the viable and non-viable gates. Cells were also analysed according to Schuurhuis et al (Schuurhuis G J, et al. Exp. Haematol. (1997); 25:754-759) in order to assess the percentages within treated populations of those that were viable, apoptotic, or necrotic. Syto 16 was added at a concentration of 250 nM in PBS to 500,000 cells and incubated at RT for 30 min, at which time 5 μg/ml propidium iodide (PI) was added. Samples were then analysed immediately by FACS and a 2D plot generated of syto 16 fluorescence versus PI fluorescence: syto 16 is taken up only by viable cells whereas Pi exclusively enters necrotic cells—syto 16^−ve/PI^−ve cells are deemed apoptotic.

[8] = system: normal peripheral blood mononuclear cells (PBMC); conditions: 24 h
From the text: Patients on SSRI's for depression sustain their circulating levels for months on repeated administrations. Also, circulating levels are believed to represent a gross underestimation of the accumulation of SSRI in body tissues. The lymphoma are, by definition, tumours of lymphoid tissues (e.g. lymph nodes).

[9] = system: non-BL lines Nalm-6, RPMI 8226, Jurkat, J10, and CEM; assay: DNA synthesis (3H-Thymidine incorporation) in non-BL lines; assay type: cell-based; conditions: data not shown
[10] = system: L3055 BL cells; assay: Annexin V binding (phosphatidylserine exposure), FACS; assay type: cell-based; conditions: fluoxetine 20 μM, 17 h, 10^6/ml, Means ± SE of 3
From the text: Annexin V binding to phosphatidylserine exposed on the outer leaflet of cells to signal for phagocytic engulfment is another commonly used measure of programmed death although caution should be applied when using as a sole indicator for assessing apoptosis in B cells.

[11] = system: L3055 cells; assay: Intracellular free Ca2+; assay type: cell-based
From the text: The increase in intracellular free Ca^2+ is known to be an important step in the induction of apoptosis.

[12] = system: biopsylike BL cells; assay: PARP-1 cleavage; assay type: cell-based; conditions: 20 μM fluoxetine

## CNCCC(Oc1ccc(C(F)(F)F)cc1)c1ccccc1 (stereo not shown) [fluoxetine]
[1]
  inhibition of DNA synthesis in actively cycling B cells (in words): Little inhibition of DNA synthesis
[2]
  cell cycle status (in words): accumulation of arresting cells in the G0/G1 compartment
[3]
  % TUNEL positive: 35.7 ± 7.6%
[4]
  effect on number of cells showing caspase activity (in words): significant effect on the numbers of cells showing caspase activity
[5]; 6 h exposure to fluoxetine
  reduction in levels of c-myc: ~60%
  reduction in levels of nm23-H2: ~60%
[5]; fluoxetine
  decrease in the expression of nm23-H1 mRNA: 75%
[6]; cells pre-treated with agent before 5-HT
  influence of pre-treatment on 5-HT-dependent inhibition of DNA synthesis (in words): substantially reversed
[6]; single dose, range of concentrations, [3H]-thymidine incorporation at 24 hr
  effect on DNA synthesis (in words): dose dependent inhibitory effect
[7]; fluoxetine 10-15 μM, 24 hours
  lymphoma cells entering apoptosis: about 40%
[7]; increasing concentrations, 24 hr
  number of viable cells (syto 16+ve/PI−ve) (in words): directly drove the lymphoma cells to die
[8]; 5 μM
  viability of PBMC: 97.3±0.88%
[8]; 10 μM
  viability of PBMC: 97.3±0.33%
[9]
  level of 3H-Thymidine incorporation in non-BL lines (in words): either no, or only minor reductions
[10]; control 3.9 ± 0.2
  Annexin V binding MFI: 26.1 ± 8.4
[10]; control 52.3 ± 1.8
  Annexin V binding % positive: 81.1 ± 3.9%
[11]; data not shown
  basal Ca2+ (in words): increase in basal Ca^2+
[11]; fluoxetine concentration range (FIG. 23)
  levels of intracellular free Ca2+ (in words): sustained increase in the levels of intracellular free Ca^2+
[12]
  PARP-1 cleavage (in words): extensive PARP-1 cleavage
